Source: patent US10533029B1, “Anticancer trans-diaminoplatinum(II) complexes of selenones” (KING FAHD UNIVERSITY OF PETROLEUM AND MINERALS, priority 2018, dated 2020)

Assays:
[1] = system: human cervical cancer HeLa cells; test: MTT in vitro cytotoxicity, HeLa; type: cell-based; settings: for cytotoxicity compared to cisplatin: HeLa cells; for IC50: HeLa, 72 h incubation, read-out: IC50 values against HeLa
Method: (§1) Solutions of Pt(II) complexes of selenone 1-7 and cisplatin at concentrations of 1.0 μM, 5.0 μM, 10.0 μM, 25.0 μM, and 50.0 μM were prepared in Dulbecco modified eagle medium (DMEM). The human cervical cancer cell line HeLa and human breast cancer cell line MDA-231 were seeded and maintained in quadruplicate in a 96-well tissue culture plate at 5×10^4 cells per well in 200 μL of the same medium. The cancer cells were incubated for 24 hours before treatment. All compounds were dissolved in 50% DMSO. Therefore DMSO was used as a negative control. The final DMSO concentration, in each well, was less than 0.1%. The cancer cells were treated with platinum complexes of compounds 1-7 and cisplatin, and the resulting cultures were incubated for 72 h. The medium of wells was discarded and 100 μL DMEM containing (5 mg/mL) MTT (3-(4,5-dimethylthiazol-2-yl)-2,5-diphenyltetrazolium bromide) was added to each well and the cultures incubated in a CO2 incubator at 37° C. in the dark for 4 hrs. After incubation, a purple colored formazan (artificial chromogenic dye, a product of the reduction of water […] tetrazolium salts e.g., MTT by dehydrogenases and reductases) in the cells is produced and appeared as dark crystals in the bottom of the wells. The medium of culture was discarded from each well carefully to avoid disruption of the monolayer. Isopropanol (100 μL) was added in each well. The solution was thoroughly mixed in the wells to dissolve the formazan crystals which results in a purple solution. The absorbance of the 96-well plate was measured at 570 nm with Mithras 2LB943 multimode microplate reader against reagent blank.
(§2) In vitro cytotoxicity of the platinum complexes of compounds 1-7 and cisplatin it DMSO were evaluated by the MTT assay against two human cancer cells namely, human cervical cancer HeLa cells and human breast cancer MDA-231 cells. The results of cytotoxicity are expressed, in terms of IC50 and listed m Table 7. The survival of the cells as a function of concentration of the platinum complexes of compounds 1-7 are graphically presented in FIGS. 4A and 4B. […] Recently, the anticancer properties of some other platinum(II) complexes of heterocyclic selenones have been reported [Altoum et al J. Coord. Chem. 70 (2017) 1020-1031; and. Altoum et al. Polyhedron, 128, 2-8 (2017), 42].

[2] = system: human breast cancer MDA-231 cells; test: MTT in vitro cytotoxicity, MDA-231; type: cell-based; settings: for cytotoxicity compared to cisplatin: MDA-231 (MDA-321 [sic]), MTT; for IC50: MDA-231, MTT, 72 h incubation, read-out: IC50 values against MDA-231
Method: as §1, §2

MCF7 cell line = test: MTT in vitro cytotoxicity, cell line MCF7; type: cell-based, human
MCF7 cells = settings: read-out: IC50, in vitro cytotoxicity against MCF7 cells, Mustafa (2015) and (2014); cited from earlier work

## N.N.NC(N)=[Se].NC(N)=[Se].O=[N+]([O-])[O-].O=[N+]([O-])[O-].[Pt+2] [Complex 1, [Pt(NH3)2(Seu)2](NO3)2]
[1]
  cytotoxicity compared to cisplatin: enhanced cytotoxicity
  IC50: 3.1 µM
[2]
  cytotoxicity compared to cisplatin: enhanced cytotoxicity
  IC50: 4.3 µM

## CNC(=[Se])NC.CNC(=[Se])NC.N.N.O=[N+]([O-])[O-].O=[N+]([O-])[O-].[Pt+2] [Complex 2, [Pt(NH3)2(Me2Seu)2](NO3)2]
[1]
  cytotoxicity compared to cisplatin: more cytotoxic than cisplatin
  IC50: 2.3 µM
[2]
  IC50: 7.4 µM
MCF7 cell line
  cytotoxicity compared to cisplatin: less active

## N.N.O=[N+]([O-])[O-].O=[N+]([O-])[O-].[Pt+2].[Se]=C1NCCN1.[Se]=C1NCCN1 [Complex 3, [Pt(NH3)2(ImSe)2](NO3)2]
[1]
  cytotoxicity compared to cisplatin: comparable cytotoxicity
  IC50: 3.7 µM
[2]
  IC50: 9.5 µM
MCF7 cell line
  cytotoxicity compared to cisplatin: less active

## CCN1CCNC1=[Se].CCN1CCNC1=[Se].N.N.O=[N+]([O-])[O-].O=[N+]([O-])[O-].[Pt+2] [Complex 4, [Pt(NH3)2(EtImSe)2](NO3)2]
[1]
  cytotoxicity compared to cisplatin: enhanced cytotoxicity
  IC50: 2.1 µM
[2]
  cytotoxicity compared to cisplatin: enhanced cytotoxicity
  IC50: 4.4 µM

## CCCN1CCNC1=[Se].CCCN1CCNC1=[Se].N.N.O=[N+]([O-])[O-].O=[N+]([O-])[O-].[Pt+2] [Complex 5, trans-[Pt(NH3)2(PrImSe)2](NO3)2]
[1]
  IC50: 6.9 µM
[2]
  IC50: 4.7 µM
MCF7 cell line
  cytotoxicity compared to cisplatin: greater cytotoxicity than cisplatin

## CC(C)N1CCNC1=[Se].CC(C)N1CCNC1=[Se].N.N.O=[N+]([O-])[O-].O=[N+]([O-])[O-].[Pt+2] [Complex 6]
[1]
  cytotoxicity compared to cisplatin: enhanced cytotoxicity
  IC50: 3.1 µM
[2]
  cytotoxicity compared to cisplatin: enhanced cytotoxicity
  IC50: 5.7 µM

## N.N.O=[N+]([O-])[O-].O=[N+]([O-])[O-].[Pt+2].[Se]=C1NCCCCN1.[Se]=C1NCCCCN1 [Complex 7, [Pt(NH3)2(DiapSe)2](NO3)2]
[1]
  IC50: 5.4 µM
[2]
  IC50: 5.3 µM

## S=C1NCCCN1.S=C1NCCCN1.S=C1NCCCN1.S=C1NCCCN1.[Cl-].[Cl-].[Pt+2] [[Pt(Diaz)4]Cl2]
MCF7 cells
  IC50: 19.1 µM

## CCN1CCNC1=S.CCN1CCNC1=S.CCN1CCNC1=S.CCN1CCNC1=S.[Cl-].[Cl-].[Pt+2] [[Pt(EtImt)4]Cl2]
MCF7 cells
  IC50: 11 µM

## cis-(Pt(NH3)2Cl2) [Cisplatin, reference compound]
[1]
  IC50: 3.6 µM
[2]
  IC50: 6.3 µM
